In paper PMC10298284, “Synthesis and hLDH Inhibitory Activity of Analogues to Natural Products with 2,8-Dioxabicyclo[3.3.1]nonane Scaffold” (International Journal of Molecular Sciences, 2023):
Values joined by “and” are separate entries in the source; they are usually repeats but may differ in a detail not shown here. Identical values can stand only once. Like-named read-outs stand apart in the source and are kept apart here.

Key:
recombinant human LDHB = target: T1, recombinant human LDHB (Homo sapiens, UniProt P07195); test: hLDHB enzymatic activity assay (same fluorimetric protocol); assay type: biochemical; details: mean ± SD of n = 3 replicates
T1 construct: purchased Abcam
T1 sequence (P07195 whole entry): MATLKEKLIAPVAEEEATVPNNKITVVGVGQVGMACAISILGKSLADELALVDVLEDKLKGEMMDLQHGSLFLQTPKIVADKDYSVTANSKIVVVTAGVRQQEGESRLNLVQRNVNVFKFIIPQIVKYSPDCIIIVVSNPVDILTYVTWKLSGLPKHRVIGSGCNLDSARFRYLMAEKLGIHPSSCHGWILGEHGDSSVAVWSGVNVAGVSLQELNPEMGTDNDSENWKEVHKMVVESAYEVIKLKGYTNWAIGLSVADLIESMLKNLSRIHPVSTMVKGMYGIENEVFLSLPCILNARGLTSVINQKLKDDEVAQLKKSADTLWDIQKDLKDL
Protocol: (§1) Briefly, the decrease in the coenzyme β-NADH fluorescence (λemission = 460 nm) was measured for 10 min, at different concentration of inhibitors, and its slope was compared with the one obtained when there were not inhibitors added (100% enzymatic activity).
The ability of the synthesized compounds to inhibit the hLDHB enzyme was measured using recombinant human LDHB (95%, specific activity >300 units/mg and concentration of 1.0 mg/mL, Abcam, Cambridge, UK) following the same fluorimetric protocol described in Section 3.4.

recombinant human LDHA = target: T2, recombinant human LDHA (Homo sapiens, UniProt P00338); test: hLDHA enzymatic activity assay (kinetic spectrofluorimetric, β-NADH fluorescence decrease); assay type: biochemical; details: for IC50: mean ± SD of n = 3 replicates; for Selectivity Rate (IC50 hLDHB/hLDHA): ratio IC50 hLDHB / IC50 hLDHA
T2 construct: purchased Abcam
Protocol: as §1
The enzymatic assay was conducted on 96-well microplates and the decrease in the β-NADH fluorescence (λexcitation = 340 nm; λemission = 460 nm) was detected in a TECAN Infinite 200 Pro M Plex fluorescent plate reader (Tecan Instrument, Inc.) at 28 °C. The activity was determined according to our previously described protocol. The final volume in each well was set to 200 µL using 100 mM potassium phosphate buffer, 0.041 units/mL LDHA, 155 µM β-NADH, 1 mM pyruvate (saturated conditions), and DMSO solutions (5%, v/v) of pure compounds at concentrations in the range of 1–600 µM. The addition of pyruvate allowed the beginning of the reaction and fluorescence was registered every 60 s during 10 min. A lineal time interval was selected to calculate the slope at every single concentration. […] The slope obtained at each concentration was compared to the one obtained for the 100% enzymatic activity control to determine the corresponding enzymatic activity. A nonlinear regression analysis in GraphPad Prism version 9.00 for Windows (GraphPad Software, La Jolla, CA, USA) was used for dose response curve, fitting of logarithm of inhibitor concentration vs. normalized enzymatic activity, to calculate IC50 values (Supplementary Material section). All measurements were made in triplicate and data were expressed as the mean ± SD.

[1] = 1 mM pyruvate, 155 µM β-NADH, pH 7.3, 28 °C, read-out: hLDHA IC50
[2] = supplementary dose response curves, µM only on the axis label, read-out: IC50 (hLDHA inhibition curve)

Row | Structure (SMILES) | IC50 (recombinant human LDHB; read-out: hLDHB IC50) [µM] | melting point | IC50 (recombinant human LDHA; [1]) | Selectivity Rate (IC50 hLDHB/hLDHA) (recombinant human LDHA) | IC50 (recombinant human LDHA; [2]) [µM] | IC50 (recombinant human LDHB; supplementary dose response curves, µM only on the axis label, read-out: IC50 (hLDHB inhibition curve)) [µM] | Selectivity Rate (IC50 hLDHB/hLDHA) (recombinant human LDHA; listed as 70b)
1 | COc1ccc(C23CC(c4ccccc4O2)c2c(O)cc(O)cc2O3)cc1OC (racemic) [(±)-42, 2-(3′,4′-Dimethoxyphenyl)-chromane-(4→4″, 2→O-5″)-phloroglucinol] | 293.1 ± 2.4 | 77 to 80 °C (dec.) | 154 ± 11.3 µM | 1.9 | 154 ± 11.3 | – | –
2 | COc1ccc(C23CC(c4cc([N+](=O)[O-])ccc4O2)c2c(O)cc(O)cc2O3)cc1OC (racemic) [(±)-43, 2-(3′,4′-Dimethoxyphenyl)-6-nitrochromane-(4→4″, 2→O-5″)-phloroglucinol] | 65.3 ± 2.1 | 193 to 195 °C | < 10 µM and 8.2 µM | 8.0 | 8.2 ± 0.2 | – | –
3 | COc1ccc(C23CC(c4cc(Cl)ccc4O2)c2c(O)cc(O)cc2O3)cc1OC (racemic) [(±)-44, 2-(3′,4′-Dimethoxyphenyl)-6-chlorochromane-(4→4″, 2→O-5″)-phloroglucinol] | – | 257 to 259 °C | – | – | – | – | –
4 | O=c1oc2ccccc2c2c1C1CC(c3ccc(O)c(O)c3)(Oc3ccc([N+](=O)[O-])cc31)O2 (racemic) [(±)-46, 2-(3′,4′-Dihydroxyphenyl)-6-nitrochromane-(4→3″, 2→O-4″)-4″-hydroxycoumarin] | – | 128 to 130 °C (dec.) | – | – | – | – | –
5 | COc1ccc(C23CC(c4ccccc4O2)c2c(c4ccccc4oc2=O)O3)cc1OC (racemic) [(±)-48] | > 300 | – | 49.6 ± 1.7 µM | >6.0 | 49.6 ± 1.7 | – | –
6 | O=c1oc2ccccc2c2c1C1CC(c3ccc(O)cc3)(Oc3ccccc31)O2 (racemic) [(±)-51] | 31.5 ± 3 | – | 34.4 ± 0.8 µM | 0.9 | 34.4 ± 0.8 | – | –
7 | O=c1oc2ccccc2c2c1C1CC(c3ccc(O)cc3)(Oc3ccc([N+](=O)[O-])cc31)O2 (racemic) [(±)-52, 2-(4′-Hydroxyphenyl)-6-nitrochromane-(4→3″, 2→O-4″)-4″-hydroxycoumarin] | – | 275 to 278 °C | 36.9 ± 1.2 µM | 1.8 | 36.9 ± 1.2 | – | –
8 | O=c1oc2ccccc2c2c1C1CC(c3ccc(O)cc3)(Oc3ccc(Cl)cc31)O2 (racemic) [(±)-53, 2-(4′-Hydroxyphenyl)-6-chlorochromane-(4→3″, 2→O-4″)-4″-hydroxycoumarin] | – | 250 to 252 °C (dec.) | – | – | – | – | –
9 | O=C1C2=C(C(=O)c3ccccc31)C1CC(c3ccc(O)c(O)c3)(O2)Oc2ccccc21 (racemic) [(±)-54, 2-(3′,4′-Dihydroxyphenyl)-chromane-(4→3″, 2→O-2″)-2″-hydroxy-1″,4″-naphthoquinone] | – | 190 to 192 °C (dec.) | – | – | – | – | –
10 | O=C1C2=C(C(=O)c3ccccc31)C1CC(c3ccc(O)c(O)c3)(O2)Oc2ccc([N+](=O)[O-])cc21 (racemic) [(±)-55, 2-(3′.4′-Dihydroxyphenyl)-6-nitrochromane-(4→3″, 2→O-2″)-2″-hydroxy-1″,4″-naphthoquinone] | – | 247 to 250 °C | 27.4 ± 0.6 µM | 1.1 | 27.4 ± 0.6 | – | –
11 | COc1ccc(C23CC(C4=C(O2)C(=O)c2ccccc2C4=O)c2ccccc2O3)cc1OC (racemic) [(±)-57] | > 300 | – | 42.2 ± 2.4 µM | >7.1 | 42.2 ± 2.4 | – | –
12 | COc1ccc(C23CC(C4=C(O2)C(=O)c2ccccc2C4=O)c2cc([N+](=O)[O-])ccc2O3)cc1OC (racemic) [(±)-58, 2-(3′.4′-Dimethoxyphenyl)-6-nitrochromane-(4→3″, 2→O-2″)-2″-hydroxy-1″,4″-naphthoquinone] | – | 148 to 150 °C | – | – | – | – | –
13 | COc1ccc(C23CC(C4=C(O2)C(=O)c2ccccc2C4=O)c2cc(Cl)ccc2O3)cc1OC (racemic) [(±)-59, 2-(3′,4′-Dimethoxyphenyl)-6-chlorochromane-(4→3″, 2→O-2″)-2″-hydroxy-1″,4″-naphthoquinone] | – | 124 to 127 °C | – | – | – | – | –
14 | O=C1C2=C(C(=O)c3ccccc31)C1CC(c3ccc(O)cc3)(O2)Oc2ccc([N+](=O)[O-])cc21 (racemic) [(±)-60, 2-(4′-Hydroxyphenyl)-6-nitrochromane-(4→3″, 2→O-2″)-2″-hydroxy-1″,4″-naphthoquinone] | – | 270 to 273 °C (dec.) | – | – | – | – | –
15 | O=C1C2=C(C(=O)c3ccccc31)C1CC(c3ccc(O)cc3)(O2)Oc2ccc(Cl)cc21 (racemic) [(±)-61, 2-(4′-Hydroxyphenyl)-6-chlorochromane-(4→3″, 2→O-2″)-2″-hydroxy-1″,4″-naphthoquinone] | – | 249 to 251 °C | – | – | – | – | –
16 | COc1ccc([C@]23C[C@H](C4=C(C[C@@H](c5ccccc5)OC4=O)O2)c2ccccc2O3)cc1OC (racemic) [(±)-62a, 2-(3′,4′-Dimethoxyphenyl)-chromane-(4→3″, 2→O-4″)-4″-hydroxy-6″-phenyl-5″,6″-dihydro-2H-pyran-2″-one] | – | – | < 10 µM and 3.6 µM | 41.8 | 3.6 ± 0.3 | 150 ± 3.9 | –
17 | COc1ccc([C@]23C[C@H](C4=C(C[C@H](c5ccccc5)OC4=O)O2)c2ccccc2O3)cc1OC (racemic) [(±)-62b, 2-(3′,4′-Dimethoxyphenyl)-chromane-(4→3″, 2→O-4″)-4″-hydroxy-6″-phenyl-5″,6″-dihydro-2H-pyran-2″-one] | > 300 | – | 39.4 ± 1.2 µM | >7.6 | 39.4 ± 1.2 | – | –
18 | COc1ccc(C23CC(C4=C(CC(c5ccc(Cl)cc5)OC4=O)O2)c2ccccc2O3)cc1OC (racemic) [(±)-63a, 2-(3′,4′-Dimethoxyphenyl)-chromane-(4→3″, 2→O-4″)-6″-(4‴-chlorophenyl)-4″-hydroxy-5″,6″-dihydro-2H-pyran-2″-one] | – | 110 to 112 °C | – | – | – | – | –
19 | COc1ccc(C2CC3=C(C(=O)O2)C2CC(c4ccc(OC)c(OC)c4)(O3)Oc3ccccc32)cc1 (racemic) [(±)-64b, 2-(3′,4′-Dimethoxyphenyl)-chromane-(4→3″, 2→O-4″)-4″-hydroxy-6″-(4‴-methoxyphenyl)-5″,6″-dihydro-2H-pyran-2″-one] | > 300 | – | 96.7 ± 9 µM | >3.1 | 96.7 ± 9 | – | –
20 | COc1ccc(C23CC(C4=C(CC(c5ccccc5)OC4=O)O2)c2cc([N+](=O)[O-])ccc2O3)cc1OC (racemic) [(±)-65b, 2-(3′,4′-Dimethoxyphenyl)-6-nitrochromane-(4→3″, 2→O-4″)-4″-hydroxy-6″-phenyl-5″,6″-dihydro-2H-pyran-2″-one] | > 300 | – | < 10 µM and 8.5 µM | >35.3 | 8.5 ± 0.4 | – | –
21 | COc1ccc(C23CC(C4=C(CC(c5ccc(Cl)cc5)OC4=O)O2)c2cc([N+](=O)[O-])ccc2O3)cc1OC (racemic) [(±)-66b, 2-(3′,4′-Dimethoxyphenyl)-6-nitrochromane-(4→3″, 2→O-4″)-6″-(4‴-chlorophenyl)-4″-hydroxy-5″,6″-dihydro-2H-pyran-2″-one] | 20.4 ± 0.7 | – | < 10 µM and 6 µM | 3.4 | 6 ± 0.1 | – | –
22 | COc1ccc(C2CC3=C(C(=O)O2)C2CC(c4ccc(OC)c(OC)c4)(O3)Oc3ccc([N+](=O)[O-])cc32)cc1 (racemic) [(±)-67b, 2-(3′,4′-Dimethoxyphenyl)-6-nitrochromane-(4→3″, 2→O-4″)-4″-hydroxy-6″-(4‴-methoxyphenyl)-5″,6″-dihydro-2H-pyran-2″-one] | 53.7 ± 0.9 | – | 14.6 ± 0.3 µM | 3.7 | 14.6 ± 0.3 | – | –
23 | COc1ccc(C23CC(C4=C(CC(c5ccccc5)OC4=O)O2)c2cc(Cl)ccc2O3)cc1OC (racemic) [(±)-68a, 2-(3′,4′-Dimethoxyphenyl)-6-chlorochromane-(4→3″, 2→O-4″)-4″-hydroxy-6″-phenyl-5″,6″-dihydro-2H-pyran-2″-one] | – | 106 to 108 °C | – | – | – | – | –
24 | COc1ccc(C23CC(C4=C(CC(c5ccc(Cl)cc5)OC4=O)O2)c2cc(Cl)ccc2O3)cc1OC (racemic) [(±)-69b, 2-(3′,4′-Dimethoxyphenyl)-6-chlorochromane-(4→3″, 2→O-4″)-6″-(4‴-chlorophenyl)-4″-hydroxy-5″,6″-dihydro-2H-pyran-2″-one] | 77 ± 9.7 | – | 14.2 ± 0.8 µM | 5.4 | 14.2 ± 0.8 | – | –
25 | COc1ccc(C2CC3=C(C(=O)O2)C2CC(c4ccc(OC)c(OC)c4)(O3)Oc3ccc(Cl)cc32)cc1 (racemic) [(±)-70b, 2-(3′.4′-Dimethoxyphenyl)-6-chlorochromane-(4→3″, 2→O-4″)-4″-hydroxy-6″-(4‴-methoxyphenyl)-5″,6″-dihydro-2H-pyran-2″-one] | 292 ± 4.1 | – | 20.2 ± 0.7 µM | 14.5 | 20.2 ± 0.7 | – | > 10
